Patent publication US20110124634A1, “BIOACTIVE COMPOUNDS FOR TREATMENT OF CANCER AND NEURODEGENERATIVE DISEASES” (PONIARD PHARMACEUTICALS, INC., priority 2008, published 2011)
Where two headings read alike, the source gives them in different places.

Experiments:
[1] = system: HSP90; assay: Fluorescence polarization (FP) assay for affinity to HSP90; type: binding; details: means of three independent experiments
Procedure: (§1) Most of the compounds synthesized were evaluated for their ability to induce degradation of the HSP90 client protein Her2 in SKBR-3 cells. Selected compounds were evaluated in a fluorescence polarization (FP) assay for their affinity to HSP90.

[2] = system: HSP90 client protein Her2 in SKBR-3 cells; assay: Her-2 degradation assay (Her-2 ELISA) in SKBr-3 cells; type: cell-based; details: Homo sapiens
Procedure: as §1
SKBr-3 cells grown in McCoy's 5a Medium supplemented with 10% fetal bovine serum (FBS) were plated into 12-well plates at 50% confluency. Increasing concentrations of inhibitors were added 24 hours later (cells are 65-70% confluent) and incubated overnight for 18 hours. The wells were washed with 2 ml of phosphate buffered saline (PBS), and 50 ul of trypsin was added to each well. After trypsinization was complete, 150 ul of FBS was added to each well. Then 200 ul of cells were transferred to 96-well plates and plates were centrifuged at 1200 rpm for 2 minutes using a tabletop centrifuge. The cells were washed once with 250 ul PBS before being lysed with 100 ul of 50 mM Tris (pH 7.4), 0.1% NP-40 lysis buffer. Protein concentrations of clarified lysates were determined using the BCA Assay (Calbiochem) according to the manufacturer's instructions. 2 ug of each lysate was analyzed in the human sp 185 Her-2 ELISA (Bender Medsystems) according to the manufacturer's instructions. ELISA plates were read at 450 nm using a multiwell plate spectrophotometer. Background was determined by measuring the Abs 450 nm of wells with no lysate added. The background value was subtracted from all values. Absorbance 450 nm values for each inhibitor were plotted against the log 10 inhibitor concentration, and IC50 values were calculated using a nonlinear least-square curve fitting program in Prism 5.

[3] = system: MCF-7; assay: MTS assay (cytotoxicity), growth inhibition of MCF-7; type: cell-based; details: Homo sapiens, MCF7, 120 h
Procedure: (§2) Cells were seeded in 96-well plates at 2000 cells/well in a final culture volume of 100 ul for 24 hours before the addition of 25 ul of increasing concentrations of inhibitors that was incubated for 5 days. Viable cell number was determined using the CellTiter 96 AQueous One Solution Cell Proliferation Assay (Promega). Plates were read at 490 nm absorbance 2-4 hours after addition of the MTS reagent using a multiwell plate spectrophotometer. Background was determined by measuring the Abs 490 nm of cell culture medium and MTS in the absence of cells. The background value was subtracted from all values. Absorbance 490 nm values for each inhibitor were plotted against the log 10 inhibitor concentration, and IC50 values were calculated using a nonlinear least-square curve fitting program in Prism 5.

[4] = system: HT29; assay: MTS assay (cytotoxicity), growth inhibition of HT29; type: cell-based; details: Homo sapiens, HT-29, 120 h
Procedure: as §2

[5] = system: SKBR-3; assay: MTS assay (cytotoxicity), growth inhibition of SKBR-3; type: cell-based; details: Homo sapiens, SK-BR-3, 120 h
Procedure: as §2

[6] = system: BT474; assay: MTS assay (cytotoxicity), growth inhibition of BT474; type: cell-based; details: Homo sapiens, BT-474, 120 h
Procedure: as §2

[7] = system: hMEpiC; assay: MTS assay (cytotoxicity), growth inhibition of human mammary epithelial cell; type: cell-based; details: Table 4, means of three independent experiments
Procedure: as §2

[8] = SK-BR-3, Table 1, series I, 18 hours, means of three independent experiments
[9] = Table 4, 5 days, means of three independent experiments, read-out: MCF-7 IC50 (growth inhibition)
[10] = Table 4, 5 days, means of three independent experiments, read-out: HT29 IC50 (growth inhibition)
[11] = Table 4, 5 days, means of three independent experiments, read-out: SKBR-3 IC50 (growth inhibition)
[12] = Table 4, 5 days, means of three independent experiments, read-out: BT474 IC50 (growth inhibition)
[13] = SK-BR-3, Table 2, 18 hours, means of three independent experiments
[14] = SK-BR-3, Table 5, series III, 18 hours
[15] = Table 5, series III, 5 days, read-out: Growth Inhibition (IC50) MCF-7
[16] = Table 5, series III, 5 days, read-out: Growth Inhibition (IC50) HT29
[17] = Table 5, series III, 5 days, read-out: Growth Inhibition (IC50) SKBR-3
[18] = Table 5, series III, 5 days, read-out: Growth Inhibition (IC50) BT474

| IC50 [2, 14] [nM] | Structure (SMILES) | IC50 [3, 9] [nM] | IC50 [4, 10] [nM] | IC50 [5, 11] [nM] | IC50 [6, 12] [nM] | IC50 [3, 15] [nM] | IC50 [4, 16] [nM] | IC50 [5, 17] [nM] | IC50 [6, 18] [nM] | other results |
| --- | --- | --- | --- | --- | --- | --- | --- | --- | --- | --- |
|  | COc1c(C)cnc(CN2CC(=O)Nc3c(Cl)nc(N)nc32)c1C [Example I-2] | 1490 | 1180 | 390 | 650 |  |  |  |  | IC50 ([1]; Table 1, series I): 880 nM; IC50 [2, 8]: 570 nM |
|  | COc1c(C)cnc(CN2CC(=O)N(CCCC(C)C)c3c(Cl)nc(N)nc32)c1C [Example I-3] | 3110 | 2260 | 970 | 1650 |  |  |  |  | IC50 ([1]; Table 1, series I): 900 nM; IC50 [2, 8]: 1910 nM |
|  | COc1c(C)cnc(CN2CC(=O)N(C(C)C)c3c(Cl)nc(N)nc32)c1C [Example I-4] | 50 | 60 | 20 | 30 |  |  |  |  | IC50 ([1]; Table 1, series I): 70 nM; IC50 [2, 8]: 50 nM; IC50 [7]: 320 nM |
|  | COc1c(C)cnc(CN2CC(=O)N(C)c3c(Cl)nc(N)nc32)c1C [Example I-5] | 2190 | 1470 | 460 | 950 |  |  |  |  | IC50 ([1]; Table 1, series I): 960 nM; IC50 [2, 8]: 930 nM |
|  | COc1c(C)cnc(CN2CC(=O)N(CC(C)C)c3c(Cl)nc(N)nc32)c1C [Example I-6] | 70 | 40 | 10 | 20 |  |  |  |  | IC50 ([1]; Table 1, series I): 50 nM; IC50 ([1]; Table 2): 50 nM; IC50 [2, 8]: 40 nM; IC50 [7]: 130 nM |
|  | COc1c(C)cnc(CN2c3nc(N)nc(Cl)c3NC(=O)[C@@H]2CCO)c1C [Example I-25] |  |  |  |  |  |  |  |  | IC50 ([1]; Table 2): 640 nM; IC50 [2, 13]: 280 nM |
|  | COc1c(C)cnc(CN2c3nc(N)nc(Cl)c3NC(=O)[C@H]2C)c1C [Example I-26] | 790 | 470 | 220 | 410 |  |  |  |  | IC50 ([1]; Table 2): 400 nM; IC50 [2, 13]: 350 nM |
|  | COc1c(C)cnc(CN2c3nc(N)nc(Cl)c3NC(=O)[C@@H]2C(C)C)c1C [Example I-28] | 1600 | 1060 | 430 | 760 |  |  |  |  | IC50 ([1]; Table 2): 2140 nM; IC50 [2, 13]: 650 nM |
|  | COc1c(C)cnc(CN2c3nc(N)nc(Cl)c3N(C(C)C)C(=O)[C@@H]2C(C)C)c1C [Example I-32] |  |  |  |  |  |  |  |  | IC50 ([1]; Table 2): 80 nM; IC50 [2, 13]: 60 nM |
|  | Cc1cnc(CN2CC(=O)N(CC(C)C)c3c(Cl)nc(N)nc32)c(C)c1Br [Example I-34] | 280 | 140 | 60 | 130 |  |  |  |  | IC50 ([1]; Table 3): 60 nM; IC50 ([2]; SK-BR-3, Table 3, 18 hours, means of three independent experiments): 100 nM; IC50 [7]: 180 nM |
| 40 | COc1c(C)cnc(CN2C(=O)/C(=C\c3cc(C(=O)NCCN4CCC(O)CC4)c[nH]3)c3c(Cl)nc(N)nc32)c1C [III-33, (Z)-5-((2-Amino-4-chloro-7-((4-methoxy-3,5-dimethylpyridin-2-yl)methyl)-6-oxo-6,7-dihydro-5H-pyrrolo[2,3-d]pyrimidin-5-ylidene)methyl)-N-(2-(4-hydroxypiperidin-1-yl)ethyl)-1H-pyrrole-3-carboxamide] |  |  |  |  | 110 | 20 | 0.6 | 3 |  |
| 20 | COc1c(C)cnc(CN2C(=O)/C(=C\c3cc(C(=O)NCCCN4CCOCC4)c[nH]3)c3c(Cl)nc(N)nc32)c1C [III-34, (Z)-5-((2-Amino-4-chloro-7-((4-methoxy-3,5-dimethylpyridin-2-yl)methyl)-6-oxo-6,7-dihydro-5H-pyrrolo[2,3-d]pyrimidin-5-ylidene)methyl)-N-(3-morpholinopropyl)-1H-pyrrole-3-carboxamide] |  |  |  |  | 170 | 20 | 10 | 40 |  |
| 60 | COc1c(C)cnc(CN2C(=O)/C(=C\c3cc(C(C)(C)C)n[nH]3)c3c(Cl)nc(N)nc32)c1C [III-52, (Z)-2-Amino-5-((3-tert-butyl-1H-pyrazol-5-yl)methylene)-4-chloro-7-((4-methoxy-3,5-dimethylpyridin-2-yl)methyl)-5H-pyrrolo[2,3-d]pyrimidin-6(7H)-one] |  |  |  |  | 190 | 240 | 140 | 410 |  |
| 100 | CCN(CC)CCNC(=O)c1c[nH]c(/C=C2\C(=O)N(Cc3cc(C)n(C)n3)c3nc(N)nc(Cl)c32)c1 [III-59, (Z)-5-((2-Amino-4-chloro-7-((1,5-dimethyl-1H-pyrazol-3-yl)methyl)-6-oxo-6,7-dihydro-5H-pyrrolo[2,3-d]pyrimidin-5-ylidene)methyl)-N-(2-(diethylamino)ethyl)-1H-pyrrole-3-carboxamide] |  |  |  |  | 1700 | 320 | 60 | 160 |  |
| 90 | COc1c(C)cnc(CN2C(=O)/C(=C\c3nc(NC(=O)C4CCOCC4)c[nH]3)c3c(Cl)nc(N)nc32)c1C [III-75, (Z)-N-(2-((2-Amino-4-chloro-7-((4-methoxy-3,5-dimethylpyridin-2-yl)methyl)-6-oxo-6,7-dihydro-5H-pyrrolo[2,3-d]pyrimidin-5-ylidene)methyl)-1H-imidazol-4-yl)tetrahydro-2H-pyran-4-carboxamide] |  |  |  |  | 160 | 50 | 7 | 60 |  |
| 80 | COc1c(C)cnc(CN2C(=O)/C(=C\c3cc(C(=O)CN4CCC(C(F)(F)F)CC4)c[nH]3)c3c(Cl)nc(N)nc32)c1C [III-94] |  |  |  |  | 390 | 350 | 90 | 790 |  |
| 40 | CCN(CC)CCNC(=O)c1c(C)[nH]c(/C=C2\C(=O)N(Cc3ncc(C)c(OC)c3C)c3nc(N)nc(Cl)c32)c1C [III-102, (Z)-5-((2-Amino-4-chloro-7-((4-methoxy-3,5-dimethylpyridin-2-yl)methyl)-6-oxo-6,7-dihydro-5H-pyrrolo[2,3-d]pyrimidin-5-ylidene)methyl)-N-(2-(diethylamino)ethyl)-2,4-dimethyl-1H-pyrrole-3-carboxamide] |  |  |  |  | 21300 | 30 | 10 | 70 |  |
